Patent US20030105093A1, “MTP activity-lowering compositions” (priority 1998, published 2003)
Where a name gives a salt, the structure may show the parent alone.

Tests used:
[1] = tested on: HepG2 cells (apo B secretion); assay: Apo B antisecretory activity (1): apo B secreted into medium by HepG2 cells, ELISA; type: cell-based, human; settings: for Apo B secretions (μg/well): 24 hours' culture, control group 9.92 ± 0.80
Protocol: HepG2 cells (100×10^4 cells/dish) were sown on 3.5 cm dishes and precultured using 1 ml DME (containing 10% FCS) medium per dish. Following this preculture, the cells were washed with DME medium twice, added to the test medium, and cultured at 37° C. under 95% air-5% carbon dioxide for 24 hours. The test medium was prepared by dissolving cycloalliin in dimethyl sulfoxide and diluted with DME medium containing 1% ESA and 0.5 mM oleic acid to a final cycloalliin concentration of 10^−6 M or 10^−4 M.
After 24 hours' culture, the medium was recovered and the amount of apo B secreted into the medium was determined by ELISA. Thus, anti-human apo B antibody (a 100-fold dilution) was distributed into a 96-well ELISA plate, 100 μL per well, and incubated at 37° C. for 2 hours. Then, 100 μL/well of Block Ace was added and the plate was further incubated at 37° C. for 2 hours. The wells were washed with PBS-Tween×3 and 100 μL each of apo B standard solution and HepG2 culture were added, followed by further incubation at 4° C. for 16 hours. After the wells were washed with PBS-Tween×3, 100 μL/well of anti-human apo B marker antibody (a 200-fold dilution) was added and the plate was incubated at 37° C. for 2 hours. The wells were washed with PBS-Tween×3, then 100 μL/well of the substrate solution was added, and the plate was incubated at 25° C. for 30 minutes. The reaction was stopped by adding 50 μL of 4.5 M H2SO4 and the absorbance at 482 nm was measured to estimate the amount of apo B secretion.

[2] = tested on: HepG2 cells (TG secretion); assay: TG antisecretory activity: secreted [14C]-labeled triglyceride in HepG2 medium; type: cell-based; settings: HepG2, 10 μM, 24 hours of culture; control group 161.2 ± 2.2
Protocol: HepG2 cells were cultured in DME medium supplemented with 1% BSA and 0.5 mM oleic acid for 24 hours. Then, the medium was changed to 1% BSA-DME containing 10 μM of the amino acid of the invention and simultaneously 0.5 μci of [^14C] acetic acid was added. The cells and medium were recovered after 24 hours of culture. The recovered cells were homogenized by sonication, and after quantitation of protein, the amount of secreted triglyceride (TG) was determined from the amount of labeled lipid in the medium.

[3] = tested on: MTP (microsomal triglyceride transfer protein); assay: MTP activity-lowering activity: liver MTP activity after 2 weeks' dosing of rats; type: in vivo; settings: SD rats, liver homogenate, control group 9.09 ± 1.0
Protocol: SD rats weighing about 200 g in groups of 6 were given 20 mg or 60 mg of the hydrochloride of the amino acid of the invention in 10 ml of water in 3 divided doses daily for 2 weeks. Thereafter, the liver was excised and homogenized using a homogenizing buffer (50 mM Tris (pH 7.4), 50 mM potassium chloride, 1.5 mM EDTA, leupeptin (5 μg/ml) and 2 mM phenylmethylsulfonyl fluoride) and the homogenate was centrifuged to give a liver homogenate. This liver homogenate was adjusted to a protein concentration of about 2 mg/mL with the same homogenizing buffer and 1 part of deoxycholate solution (0.56%, pH 7.5) was added to 10 parts of the homogenate. The reaction was then carried out at 4° C. for 30 minutes, whereby MTP was liberated from the microsomal fraction. The membrane fraction was then removed by centrifugation to give a supernatant. This supernatant was diluted with Tris buffer (a buffer solution containing 15 mM Tris (pH 7.4), 40 mM NaCl, 1 mM EDTA, 0.02% NaN3) and dialyzed against the same buffer at 4° C. overnight. The dialysate thus obtained was analyzed for MTP activity by the method of J. R. Wetterau [Science, 258, 999 (1992)].

[4] = 60 mg daily in 3 divided doses for 2 weeks

C[C@H]1C[S@+]([O-])C[C@@H](C(=O)O)N1 [Cycloalliin, (1S, 3R, 5S)-5-methyl-1,4-thiazane-3-carboxylic acid 1-oxide]
Apo B secretions (μg/well) ([1]; HepG2, 10^−4 M): 7.67 ± 1.31 μg/well
Effect on apo B secretion (in words) ([1]; HepG2, 10^−6 M or 10^−4 M, 24 hours, vs control group): significant suppression of apo B secretion
Apo B secretions (μg/well) ([1]; HepG2, 10^−6 M): 7.54 ± 1.13 μg/well

S-n-propyl-L-cysteine sulfoxide
TG secretions ([^14C] dpm × 10^−2/mg protein) [2]: 105.8 ± 18.9 [^14C] dpm × 10^−2/mg protein

C[C@H]1C[S@+]([O-])C[C@@H](C(=O)O)N1 [Cycloalliin HCl, (1S, 3R, 5S)-5-methyl-1,4-thiazane-3-carboxylic acid 1-oxide]
MTP activity (%) ([3]; 20 mg daily in 3 divided doses for 2 weeks): 6.12 ± 0.7 %
MTP activity (%) [3, 4]: 4.92 ± 1.0 %

S-methyl-L-cysteine sulfoxide [S-methyl-L-cysteine sulfoxide HCl]
MTP activity (%) [3, 4]: 5.43 ± 0.6 %
